Test results: US5849735A, “Tricyclic benzazepine vasopressin antagonists” (American Cyanamid Company, priority 1995, dated 1998)

Legend:
[1] = biological target: T1, vasopressin V1 receptor (human platelet membranes) (Homo sapiens, UniProt P37288); experiment: Binding to Vasopressin V1 receptor subtype in Human Platelet Membranes
T1 construct: tissue Hudson Valley Blood Services; host or cells: human platelets (frozen platelet rich plasma)
Protocol: Radioligand Binding Experiments with Human Platelet Membranes
(a) Platelet Membrane Preparation
Frozen platelet rich plasma (PRP), received from the Hudson Valley Blood Services, are thawed to room temperature. (Platelet Source: Hudson Valley Blood Services, Westchester Medical Center, Valhalla, N.Y.). The tubes containing the PRP are centrifuged at 16,000×g for 10 minutes at 4° C. and the supernatant fluid discarded. The platelets resuspended in an equal volume of 50.0 mM Tris.HCL, pH 7.5 containing 120 mM NaCl and 20.0 mM EDTA. The suspension is recentrifuged at 16,000×g for 10 minutes. This washing step is repeated one more time. The wash discarded and the lysed pellets homogenized in low ionic strength buffer of Tris. HCl, […], pH 7.5 containing 5.0 mM EDTA. The homogenate is centrifuged at 39,000×g for 10 minutes. The resulting pellet is resuspended in Tris.HCl buffer, 70.0 mM, pH 7.5 and recentrifuged at 39,000×g for 10 minutes. […]
In wells of a 96 well format microtiter plate, add 100 ml of 50.0 mM Tris. […] Non specific binding is measured in the presence of 1.0 mM of unlabeled ligand (Manning or Arg^8 Vasopressin). […] The radioactivity caught on the filter disks is determined by the addition of liquid scintillant and counting in a liquid scintillator.

[2] = biological target: T2, vasopressin V2 receptor (rat kidney medullary) (Rattus norvegicus, UniProt Q00788); experiment: Binding Assay to Rat Kidney Medullary V2 Receptors; conditions: for inhibition at 10 µM: rat kidney V2
T2 construct: Medullary tissues from rat kidneys are dissected out; from tissue; host or cells: rat kidney medulla membranes
T2 sequence (Q00788 whole entry): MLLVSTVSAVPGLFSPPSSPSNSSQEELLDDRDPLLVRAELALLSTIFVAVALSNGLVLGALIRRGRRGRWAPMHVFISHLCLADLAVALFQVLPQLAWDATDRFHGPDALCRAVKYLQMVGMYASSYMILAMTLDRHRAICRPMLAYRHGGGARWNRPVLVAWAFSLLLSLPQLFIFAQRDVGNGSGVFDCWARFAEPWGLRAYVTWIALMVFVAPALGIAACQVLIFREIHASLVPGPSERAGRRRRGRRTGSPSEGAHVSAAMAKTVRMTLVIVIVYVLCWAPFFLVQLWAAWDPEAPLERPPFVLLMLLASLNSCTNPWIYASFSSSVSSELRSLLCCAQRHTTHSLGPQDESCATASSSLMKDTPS
Protocol: Binding Assay to Rat Kidney Medullary V2 Receptors
Medullary tissues from rat kidneys are dissected out, cut into small pieces and soaked in a […] sodium chloride solution containing 1.0 mM EDTA with many changes of the liquid phase, until the solution is clear of blood. […] The tissue is homogenized in a 0.25M sucrose solution containing 1.0 mM EDTA and 0.1 mM PMSF using a Potter-Elvehjem homogenizer with a teflon pestle. The homogenate is filtered through several layers (4 layers) of cheese cloth. The filtrate is rehomogenized using a dounce homogenizer, with a tight fitting pestle. The final homogenate is centrifuged at 1500×g for 15 min. The nuclear pellet is discarded and the supernatant fluid recentrifuged at 40,000×g for 30 min. The resulting pellet formed contains a dark inner part with the exterior, slightly pink. The pink outer part is suspended in a small amount of 50.0 mM Tris.HCl buffer, pH 7.4. The protein content is determined by the Lowry's method (Lowry et al., J. Biol. Chem., 1953). The membrane suspension is stored at -70° C., in 50.0 mM Tris.HCl, containing 0.2% inactivated BSA and 0.1 mM PMSF in aliquots of 1.0 ml containing 10.0 mg protein per ml of suspension until sue in subsequent binding experiments.
For binding experiments, the following is added in ml volume to wells of a 96 well format of a microtiter plate: 100.0 ml of 100.0 mM Tris.HCl buffer containing 0.2% heat inactivated BSA, 10.0 mM MgCL2 and a mixture of protease inhibitors: leupeptin, 1.0 mg %; aprotinin, 1.0 mg % 1,10-phenanthroline, 2.0 mg %; trypsin inhibitor, and 0.1 mM PMSF, 20.0 ml of [^3 H] Arginine^8, vasopressin (S.A. 75.0 Ci/mmole) at 0.8 nM and the reaction initiated by the addition of 80.0 ml of tissue membranes (200.0 mg tissue protein). The plates are left undisturbed on the bench top for 120 minutes to reach equilibrium. Non-specific binding is assessed in the presence of 1.0 mM of unlabeled ligand, added in 20 ml volume. For test compounds, these are solubilized in 50% dimethylsulfoxide (DMSO) and added in 20.0 ml volume to a final incubation volume of […]. Upon completion of binding, the content of each well is filtered off, using a Brandel® cell Harvester (Gaithersburg, Md.). The radioactivity trapped on the filter disk by the ligand-receptor complex is assessed by liquid scintillation counting in a Parkard LS Counter, with an efficiency of 65% for tritium.

T1 sequence (P37288 whole entry): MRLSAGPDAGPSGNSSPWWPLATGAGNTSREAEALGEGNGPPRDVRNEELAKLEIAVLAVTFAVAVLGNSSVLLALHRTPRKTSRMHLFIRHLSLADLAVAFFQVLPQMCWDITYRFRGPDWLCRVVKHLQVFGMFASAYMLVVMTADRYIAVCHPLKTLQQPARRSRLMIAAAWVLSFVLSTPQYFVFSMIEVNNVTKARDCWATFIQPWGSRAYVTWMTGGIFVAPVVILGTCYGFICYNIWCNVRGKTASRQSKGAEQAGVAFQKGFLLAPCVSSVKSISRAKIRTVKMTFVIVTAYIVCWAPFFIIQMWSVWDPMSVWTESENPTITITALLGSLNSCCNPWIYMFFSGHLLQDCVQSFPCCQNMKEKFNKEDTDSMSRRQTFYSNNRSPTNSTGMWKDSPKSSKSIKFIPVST

SMILES	inhibition at 10 µM [2] [%]	further results
CCCCOc1ccc(C(=O)N2Cc3ccccc3Cc3ccccc32)cc1 [Example 24]	–	V1 % ([1]; "(μM)" (concentration not given), 90 min): 72%
Cc1ccc(F)cc1C(=O)Nc1ccc(C(=O)N2Cc3ccccc3Oc3ncccc32)cn1 [Example 4, N-[5-(Pyrido[2,3-b][1,4]benzoxazepin-5(6H)-ylcarbonyl)-2-pyridinyl]-5-fluoro-2-methylbenzamide]	20	–
O=C(c1ccc(-c2ccccc2)cc1)N1Cc2sccc2Cc2ccccc21 [Example 27, 9-([1,1'-Biphenyl]-4-ylcarbonyl)-9,10-dihydro-4H-thieno[2,3-c][1]benzazepine]	–	IC50 [1]: 14 nM
O=C(c1ccc(-c2ccccc2)cc1)N1Cc2ccccc2Oc2ccccc21 [Example 26, 10-([1,1'-Biphenyl]-4-ylcarbonyl)-10,11-dihydrodibenz[b,f][1,4]oxazepine]	29	–
Cc1ccc(F)cc1C(=O)Nc1ccc(C(=O)N2Cc3sccc3Cc3ccccc32)cn1 [Example 2, N-[5-[(9,10-Dihydro-4H-thieno[2,3-c][1]benzazepin-9-yl)carbonyl]-2-pyridinyl]-5-fluoro-2-methylbenzamide]	–	IC50 ([2]; rat kidney medullary V2 receptors): 29 nM

Continued, in another order:

inhibition at 10 µM [2] [%]	SMILES	further results
62	Cc1ccc(F)cc1C(=O)Nc1ccc(C(=O)N2Cc3ccccc3CCc3ccccc32)cn1 [Example 45]	–
33	O=C(c1ccccc1)c1ccc(C(=O)N2Cc3ccccc3Oc3ccccc32)cc1 [Example 32, 10-(4-Benzoylbenzoyl)-10,11-dihydrodibenz[b,f][1,4]oxazepine]	–
